According to ChEMBL document CHEMBL5726562, “Pyridinyl and fused pyridinyl triazolone derivatives” (2017):

Molecular target: Tyrosine-protein kinase BTK (Homo sapiens, UniProt Q06187)
Assay: Inhibition Assay: The inhibitory properties of compounds relative to BTK is determined using a black 384-well-plate format in a buffer which contains 50 mM Hepes, 10 mM NaCl, 10 mM MgCl2, 0.2 mM EDTA, 0.01% Brij35®, 1 mM DTT, and 0.1 mg/mL BSA at pH 7.3. The test compound is prepared in DMSO using 2-fold serial dilutions for 11 data points, which are added to the buffer so that each dilution contains 3% DMSO. […] The reaction mixtures are incubated at room temperature for 60 minutes and then quenched by adding 25 μL of 50 mM EDTA. To quantify the fluorescent-labeled substrate and product following reaction, the test plate is loaded on a Caliper LC-3000, which measures percent of conversion by microfluidic-based separation.

Tyrosine-protein kinase BTK, sequence (Q06187 whole entry): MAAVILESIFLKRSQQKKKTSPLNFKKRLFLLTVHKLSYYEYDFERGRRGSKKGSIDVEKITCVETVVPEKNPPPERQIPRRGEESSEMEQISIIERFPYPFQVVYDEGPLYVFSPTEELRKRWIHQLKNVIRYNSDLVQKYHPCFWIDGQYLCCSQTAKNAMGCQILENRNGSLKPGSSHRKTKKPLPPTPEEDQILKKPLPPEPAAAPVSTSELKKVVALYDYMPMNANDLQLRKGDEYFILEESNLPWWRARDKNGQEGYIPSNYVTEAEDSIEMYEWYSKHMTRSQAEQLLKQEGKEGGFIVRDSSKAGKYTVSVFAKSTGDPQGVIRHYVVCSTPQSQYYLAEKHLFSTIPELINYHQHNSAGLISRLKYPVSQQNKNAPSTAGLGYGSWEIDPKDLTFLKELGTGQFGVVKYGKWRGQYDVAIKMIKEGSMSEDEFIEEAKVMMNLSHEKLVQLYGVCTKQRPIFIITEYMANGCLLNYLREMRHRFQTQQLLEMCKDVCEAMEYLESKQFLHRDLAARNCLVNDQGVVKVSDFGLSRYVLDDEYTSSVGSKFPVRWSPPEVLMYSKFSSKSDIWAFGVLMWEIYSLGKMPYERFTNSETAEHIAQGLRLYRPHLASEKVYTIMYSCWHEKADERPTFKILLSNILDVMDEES

Row | IC50 [nM] | SMILES
1 | < 1.26 | C=CC(=O)N1CC[C@H](Oc2nc(-c3n[nH]c(=O)[nH]3)cc3ccc(Cl)cc23)C1
2 | < 1.26 | C=CC(=O)N1CC[C@H](Oc2nc(-c3n[nH]c(=O)[nH]3)cc3cccc(F)c23)C1
